Laboratory results published in PMC8398766, “Do Small Molecules Activate the TrkB Receptor in the Same Manner as BDNF? Limitations of Published TrkB Low Molecular Agonists and Screening for Novel TrkB Orthosteric Agonists” (Pharmaceuticals, 2021).
Blank lines part the entries; values can stand above or below the molecule they belong to.

Tests used:
[1] = target: T1, Fyn kinase (Homo sapiens, UniProt P06241); assay: BioPrint Profile Panel; format: biochemical; conditions: read-out: % of specific inhibition
T1 construct: purchased Eurofins Discovery (Cerep) BioPrint Profile Panel
Source text: (§1) The BioPrint® Profile Panel service offered by Eurofins Discovery (Poitiers, France) was chosen to perform selectivity analysis.

[2] = target: T2, IRK (Homo sapiens, UniProt P06213); assay: BioPrint Profile Panel; format: biochemical; conditions: Kinase, read-out: % of specific inhibition
T2 construct: purchased Eurofins Discovery (Cerep) BioPrint Profile Panel
Source text: as §1

[3] = target: T3, CaMK2α (Homo sapiens, UniProt Q9UQM7); assay: BioPrint Profile Panel; format: biochemical; conditions: Kinase, read-out: % of specific inhibition
T3 construct: purchased Eurofins Discovery (Cerep) BioPrint Profile Panel
Source text: as §1

[4] = target: T4, acetylcholinesterase (Homo sapiens, UniProt P22303); assay: BioPrint Profile Panel; format: biochemical; conditions: Non-Kinase Enzyme, read-out: % of specific inhibition
T4 construct: purchased Eurofins Discovery (Cerep) BioPrint Profile Panel
Source text: as §1

[5] = target: PDE2A1 (Homo sapiens, UniProt O00408); assay: BioPrint Profile Panel; format: biochemical; conditions: Non-Kinase Enzyme, read-out: % of specific inhibition
Source text: as §1

[6] = test system: Guanylyl cyclase; assay: BioPrint Profile Panel; format: biochemical; conditions: 10 μM; Activator effect
Source text: as §1

[7] = target: T5, MMP-2 (Homo sapiens, UniProt P08253); assay: BioPrint Profile Panel; format: biochemical; conditions: Non-Kinase Enzyme
T5 construct: purchased Eurofins Discovery (Cerep) BioPrint Profile Panel
Source text: as §1

[8] = target: T6, FLT-1 kinase (Homo sapiens, UniProt P17948); assay: BioPrint Profile Panel; format: biochemical; conditions: read-out: % of specific inhibition
T6 construct: purchased Eurofins Discovery (Cerep) BioPrint Profile Panel
Source text: as §1

[9] = target: T7, choline transporter (Homo sapiens, UniProt Q9GZV3); assay: BioPrint Profile Panel; format: binding; conditions: Antagonist, read-out: % of specific inhibition
T7 construct: purchased Eurofins Discovery (Cerep) BioPrint Profile Panel
Source text: as §1

[10] = target: T8, AT2 (Homo sapiens, UniProt P50052); assay: BioPrint Profile Panel; format: binding; conditions: Agonist, Receptor, read-out: % of specific inhibition
T8 construct: purchased Eurofins Discovery (Cerep) BioPrint Profile Panel
Source text: as §1

[11] = target: T9, CCK2 (CCKB) (Homo sapiens, UniProt P32239); assay: BioPrint Profile Panel; format: binding; conditions: Agonist, Receptor, read-out: % of specific inhibition
T9 construct: purchased Eurofins Discovery (Cerep) BioPrint Profile Panel
Source text: as §1

[12] = target: T10, sst4 (Homo sapiens, UniProt P31391); assay: BioPrint Profile Panel; format: binding; conditions: Agonist, Receptor, read-out: % of specific inhibition
T10 construct: purchased Eurofins Discovery (Cerep) BioPrint Profile Panel
Source text: as §1

[13] = target: T11, norepinephrine transporter (Homo sapiens, UniProt P23975); assay: BioPrint Profile Panel; format: binding; conditions: Antagonist, read-out: % of specific inhibition
T11 construct: purchased Eurofins Discovery (Cerep) BioPrint Profile Panel
Source text: as §1

[14] = target: T12, A3 (Homo sapiens, UniProt P0DMS8); assay: BioPrint Profile Panel; format: binding; conditions: Agonist, Receptor
T12 construct: purchased Eurofins Discovery (Cerep) BioPrint Profile Panel
Source text: as §1

[15] = test system: Ca2+ channel (diltiazem site); assay: BioPrint Profile Panel; format: binding; conditions: 10 μM; Antagonist (diltiazem site); Ion Channel
Source text: as §1

[16] = target: T13, LXRβ (Homo sapiens, UniProt P55055); assay: BioPrint Profile Panel; format: binding; conditions: Agonist, Receptor, read-out: % of specific inhibition
T13 construct: purchased Eurofins Discovery (Cerep) BioPrint Profile Panel
Source text: as §1

[17] = target: T14, NK1 (Homo sapiens, UniProt P25103); assay: BioPrint Profile Panel; format: binding; conditions: Agonist, Receptor, read-out: % of specific inhibition
T14 construct: purchased Eurofins Discovery (Cerep) BioPrint Profile Panel
Source text: as §1

[18] = target: T15, CCR2 (Homo sapiens, UniProt P41597); assay: BioPrint Profile Panel; format: binding; conditions: Agonist, Receptor, read-out: % of specific inhibition
T15 construct: purchased Eurofins Discovery (Cerep) BioPrint Profile Panel
Source text: as §1

[19] = target: T16, AR (Homo sapiens, UniProt P10275, T878A); assay: BioPrint Profile Panel; format: binding; conditions: Agonist, Receptor, read-out: % of specific inhibition
T16 construct: purchased Eurofins Discovery (Cerep) BioPrint Profile Panel
Source text: as §1

[20] = target: T17, FP (Homo sapiens, UniProt P43088); assay: BioPrint Profile Panel; format: binding; conditions: Agonist, Receptor, read-out: % of specific inhibition
T17 construct: purchased Eurofins Discovery (Cerep) BioPrint Profile Panel
Source text: as §1

[21] = target: T18, AT1 (Homo sapiens, UniProt P30556); assay: BioPrint Profile Panel; format: binding; conditions: Antagonist, Receptor, read-out: % of specific inhibition
T18 construct: purchased Eurofins Discovery (Cerep) BioPrint Profile Panel
Source text: as §1

[22] = test system: PCP; assay: BioPrint Profile Panel; format: binding; conditions: 10 μM; Antagonist; Ion Channel
Source text: as §1

[23] = target: T19, V1a (Homo sapiens, UniProt P37288); assay: BioPrint Profile Panel; format: binding; conditions: Agonist, Receptor, read-out: % of specific inhibition
T19 construct: purchased Eurofins Discovery (Cerep) BioPrint Profile Panel
Source text: as §1

[24] = target: T20, H3 (Homo sapiens, UniProt Q9Y5N1); assay: BioPrint Profile Panel; format: binding; conditions: Agonist, Receptor, read-out: % of specific inhibition
T20 construct: purchased Eurofins Discovery (Cerep) BioPrint Profile Panel
Source text: as §1

[25] = target: T21, BB3 (Homo sapiens, UniProt P32247); assay: BioPrint Profile Panel; format: binding; conditions: Agonist, Receptor, read-out: % of specific inhibition
T21 construct: purchased Eurofins Discovery (Cerep) BioPrint Profile Panel
Source text: as §1

[26] = target: T22, APJ (apelin) (Homo sapiens, UniProt P35414); assay: BioPrint Profile Panel; format: binding; conditions: Agonist, Receptor, read-out: % of specific inhibition
T22 construct: purchased Eurofins Discovery (Cerep) BioPrint Profile Panel
Source text: as §1

[27] = test system: MT3 (ML2); assay: BioPrint Profile Panel; format: binding; conditions: 10 μM; Agonist; Receptor
Source text: as §1

[28] = target: T23, M4 (Homo sapiens, UniProt P08173); assay: BioPrint Profile Panel; format: binding; conditions: Antagonist, Receptor, read-out: % of specific inhibition
T23 construct: purchased Eurofins Discovery (Cerep) BioPrint Profile Panel
Source text: as §1

[29] = test system: NMDA; assay: BioPrint Profile Panel; format: binding; conditions: 10 μM; Antagonist; Ion Channel
Source text: as §1

[30] = test system: N muscle-type; assay: BioPrint Profile Panel; format: binding; conditions: 10 μM; Antagonist; Receptor
Source text: as §1

[31] = target: T24, 5-HT1B (Rattus norvegicus, UniProt P28564); assay: BioPrint Profile Panel; format: binding; conditions: Antagonist, Receptor, read-out: % of specific inhibition
T24 construct: purchased Eurofins Discovery (Cerep) BioPrint Profile Panel
Source text: as §1

[32] = test system: Ca2+ channel; assay: BioPrint Profile Panel; format: binding; conditions: 10 μM, Antagonist, Ion Channel
Source text: as §1

[33] = target: T25, µ (MOP) (Homo sapiens, UniProt P35372); assay: BioPrint Profile Panel; format: binding; conditions: Agonist, Receptor, read-out: % of specific inhibition
T25 construct: purchased Eurofins Discovery (Cerep) BioPrint Profile Panel
Source text: as §1

[34] = target: T26, 5-HT6 (Homo sapiens, UniProt P50406); assay: BioPrint Profile Panel; format: binding; conditions: Agonist, Receptor, read-out: % of specific inhibition
T26 construct: purchased Eurofins Discovery (Cerep) BioPrint Profile Panel
Source text: as §1

[35] = target: T27, α1B (Homo sapiens, UniProt P35368); assay: BioPrint Profile Panel; format: binding; conditions: Antagonist, Receptor, read-out: % of specific inhibition
T27 construct: purchased Eurofins Discovery (Cerep) BioPrint Profile Panel
Source text: as §1

[36] = target: T28, β3 (Homo sapiens, UniProt P13945); assay: BioPrint Profile Panel; format: binding; conditions: Antagonist, Receptor, read-out: % of specific inhibition
T28 construct: purchased Eurofins Discovery (Cerep) BioPrint Profile Panel
Source text: as §1

[37] = target: T29, exTrkB (Homo sapiens, UniProt Q16620); assay: Ligand-induced exTrkB dimerization assay (native electrophoresis); format: biochemical; conditions: exTrkB:ligand 1:1, non-reducing conditions
T29 construct: human TrkB receptor (exTrkB), residues 1−430, was cloned into the pCMV2 expression vector; made in house; host or cells: ExpiCHO-S cells
Method: The native exTrkB, BDNF, and tested compounds were separately diluted with PBS (pH 7.4) to a final concentration of 2.5 μM. Then, exTrkB, BDNF, or the tested compound were mixed (1:1 v/v) and incubated at 25 °C for 10 min, and 2X Sample Buffer (0.6 M Tris, 20% glycerol, 0.02% Bromophenol Blue, pH 6.8) was added to the samples. Afterwards, the samples were loaded into Stain-Free gels (10% Mini-PROTEAN® TGX Stain-Free™ Protein Gels; Bio-Rad, Hercules, CA, USA) and separated in non-reducing conditions using SDS-free electrophoresis buffer (192 mM glycine, 25 mM Tris; pH 8.3). Visualization of the protein bands was performed using a ChemiDoc MP Imaging System (Bio-Rad).

[38] = read-out: % Inhibition of Control Specific Binding

T12 sequence (P0DMS8 whole entry): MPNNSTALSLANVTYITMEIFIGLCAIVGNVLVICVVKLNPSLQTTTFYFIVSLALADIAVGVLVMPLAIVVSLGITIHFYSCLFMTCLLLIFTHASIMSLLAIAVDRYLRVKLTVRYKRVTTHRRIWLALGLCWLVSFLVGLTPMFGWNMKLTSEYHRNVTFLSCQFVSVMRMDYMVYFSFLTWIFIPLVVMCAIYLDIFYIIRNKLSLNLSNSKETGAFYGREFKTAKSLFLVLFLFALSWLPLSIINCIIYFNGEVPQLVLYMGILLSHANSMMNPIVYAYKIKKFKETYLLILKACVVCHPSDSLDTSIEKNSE
T5 sequence (P08253 110-660): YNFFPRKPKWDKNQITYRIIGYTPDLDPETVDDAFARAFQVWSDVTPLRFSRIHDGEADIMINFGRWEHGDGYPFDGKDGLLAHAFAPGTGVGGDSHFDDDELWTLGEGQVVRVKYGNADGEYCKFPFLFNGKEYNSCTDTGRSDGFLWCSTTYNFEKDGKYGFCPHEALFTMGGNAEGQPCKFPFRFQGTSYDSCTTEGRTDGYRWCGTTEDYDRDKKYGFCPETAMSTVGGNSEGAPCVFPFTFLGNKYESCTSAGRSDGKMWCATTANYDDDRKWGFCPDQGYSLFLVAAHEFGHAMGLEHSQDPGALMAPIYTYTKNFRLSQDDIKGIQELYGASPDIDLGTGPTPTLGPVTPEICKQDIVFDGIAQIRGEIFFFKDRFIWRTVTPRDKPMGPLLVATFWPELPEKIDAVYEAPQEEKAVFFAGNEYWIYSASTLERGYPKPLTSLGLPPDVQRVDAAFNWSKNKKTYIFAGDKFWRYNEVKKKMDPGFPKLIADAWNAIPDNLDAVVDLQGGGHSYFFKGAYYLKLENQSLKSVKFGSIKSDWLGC
T14 sequence (P25103 whole entry): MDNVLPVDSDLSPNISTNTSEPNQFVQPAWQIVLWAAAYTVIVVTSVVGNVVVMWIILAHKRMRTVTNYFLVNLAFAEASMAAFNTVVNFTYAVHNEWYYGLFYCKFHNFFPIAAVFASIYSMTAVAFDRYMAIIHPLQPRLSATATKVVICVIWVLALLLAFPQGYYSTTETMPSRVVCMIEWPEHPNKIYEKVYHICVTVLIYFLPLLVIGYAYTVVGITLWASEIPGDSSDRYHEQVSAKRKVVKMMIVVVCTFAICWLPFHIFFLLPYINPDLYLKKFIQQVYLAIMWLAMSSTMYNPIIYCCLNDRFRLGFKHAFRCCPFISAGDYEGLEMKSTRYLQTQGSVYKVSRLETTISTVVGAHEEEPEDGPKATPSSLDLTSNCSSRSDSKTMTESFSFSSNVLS
T3 sequence (Q9UQM7 whole entry): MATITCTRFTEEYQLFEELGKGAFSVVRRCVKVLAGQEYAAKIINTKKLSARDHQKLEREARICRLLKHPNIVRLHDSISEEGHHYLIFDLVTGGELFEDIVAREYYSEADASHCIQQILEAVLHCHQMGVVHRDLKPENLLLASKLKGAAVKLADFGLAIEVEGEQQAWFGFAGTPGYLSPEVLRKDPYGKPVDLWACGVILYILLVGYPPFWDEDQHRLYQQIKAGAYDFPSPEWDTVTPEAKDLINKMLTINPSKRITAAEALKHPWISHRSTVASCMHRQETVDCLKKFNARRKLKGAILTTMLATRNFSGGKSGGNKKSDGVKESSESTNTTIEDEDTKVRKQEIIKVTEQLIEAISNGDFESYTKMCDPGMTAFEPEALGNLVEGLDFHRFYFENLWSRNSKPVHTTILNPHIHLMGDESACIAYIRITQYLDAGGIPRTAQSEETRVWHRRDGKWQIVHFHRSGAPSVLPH
T25 sequence (P35372 whole entry): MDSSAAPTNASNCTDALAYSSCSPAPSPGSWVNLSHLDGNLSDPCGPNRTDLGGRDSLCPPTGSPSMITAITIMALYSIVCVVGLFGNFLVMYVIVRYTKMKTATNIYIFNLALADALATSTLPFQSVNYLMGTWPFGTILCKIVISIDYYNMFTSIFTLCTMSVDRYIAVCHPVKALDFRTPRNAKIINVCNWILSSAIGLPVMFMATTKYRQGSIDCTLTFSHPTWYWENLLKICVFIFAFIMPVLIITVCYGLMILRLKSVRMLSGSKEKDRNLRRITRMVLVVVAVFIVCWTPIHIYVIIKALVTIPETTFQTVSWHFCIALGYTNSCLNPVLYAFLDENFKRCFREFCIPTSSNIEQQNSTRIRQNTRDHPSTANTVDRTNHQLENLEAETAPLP
T7 sequence (Q9GZV3 whole entry): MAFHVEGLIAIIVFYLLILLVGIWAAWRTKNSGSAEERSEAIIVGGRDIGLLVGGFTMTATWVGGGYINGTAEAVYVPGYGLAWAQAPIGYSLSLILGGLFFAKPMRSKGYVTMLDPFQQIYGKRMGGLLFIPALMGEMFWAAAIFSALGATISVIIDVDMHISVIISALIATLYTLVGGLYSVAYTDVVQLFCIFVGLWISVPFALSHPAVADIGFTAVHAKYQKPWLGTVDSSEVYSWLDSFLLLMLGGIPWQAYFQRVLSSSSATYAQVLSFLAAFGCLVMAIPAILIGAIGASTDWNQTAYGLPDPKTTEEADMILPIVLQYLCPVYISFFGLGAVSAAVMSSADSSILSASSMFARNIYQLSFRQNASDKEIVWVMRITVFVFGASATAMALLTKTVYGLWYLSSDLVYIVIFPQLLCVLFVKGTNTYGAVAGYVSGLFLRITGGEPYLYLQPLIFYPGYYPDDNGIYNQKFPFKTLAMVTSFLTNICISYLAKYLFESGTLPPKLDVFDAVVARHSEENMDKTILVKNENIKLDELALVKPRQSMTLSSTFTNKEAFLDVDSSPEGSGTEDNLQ
T27 sequence (P35368 whole entry): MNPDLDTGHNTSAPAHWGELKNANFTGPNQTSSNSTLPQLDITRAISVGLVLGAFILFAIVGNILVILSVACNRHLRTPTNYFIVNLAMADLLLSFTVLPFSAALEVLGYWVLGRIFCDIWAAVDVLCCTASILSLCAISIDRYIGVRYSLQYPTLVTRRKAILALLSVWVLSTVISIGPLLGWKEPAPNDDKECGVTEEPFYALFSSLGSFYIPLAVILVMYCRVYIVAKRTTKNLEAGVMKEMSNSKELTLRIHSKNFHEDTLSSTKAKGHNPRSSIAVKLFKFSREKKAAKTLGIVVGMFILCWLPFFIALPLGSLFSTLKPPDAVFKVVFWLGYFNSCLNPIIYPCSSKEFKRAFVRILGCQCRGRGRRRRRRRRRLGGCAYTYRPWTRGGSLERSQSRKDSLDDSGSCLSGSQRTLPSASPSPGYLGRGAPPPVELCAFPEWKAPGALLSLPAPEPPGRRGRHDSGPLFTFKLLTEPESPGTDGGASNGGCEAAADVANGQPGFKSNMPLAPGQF
T4 sequence (P22303 32-614): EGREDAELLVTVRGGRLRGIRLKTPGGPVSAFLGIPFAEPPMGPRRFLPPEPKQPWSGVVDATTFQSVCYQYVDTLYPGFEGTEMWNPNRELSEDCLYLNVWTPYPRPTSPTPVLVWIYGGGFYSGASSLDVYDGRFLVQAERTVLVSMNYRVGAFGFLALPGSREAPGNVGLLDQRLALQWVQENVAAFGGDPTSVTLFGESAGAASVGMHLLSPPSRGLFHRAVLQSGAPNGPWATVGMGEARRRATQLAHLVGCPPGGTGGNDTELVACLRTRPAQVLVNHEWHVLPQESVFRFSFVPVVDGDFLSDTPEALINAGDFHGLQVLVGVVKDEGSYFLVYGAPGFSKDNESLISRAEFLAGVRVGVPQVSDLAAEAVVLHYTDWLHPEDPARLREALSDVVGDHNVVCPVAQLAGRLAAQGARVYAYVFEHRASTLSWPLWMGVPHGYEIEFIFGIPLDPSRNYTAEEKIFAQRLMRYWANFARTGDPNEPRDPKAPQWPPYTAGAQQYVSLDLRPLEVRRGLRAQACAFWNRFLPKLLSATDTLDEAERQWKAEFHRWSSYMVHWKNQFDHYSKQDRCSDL
T8 sequence (P50052 whole entry): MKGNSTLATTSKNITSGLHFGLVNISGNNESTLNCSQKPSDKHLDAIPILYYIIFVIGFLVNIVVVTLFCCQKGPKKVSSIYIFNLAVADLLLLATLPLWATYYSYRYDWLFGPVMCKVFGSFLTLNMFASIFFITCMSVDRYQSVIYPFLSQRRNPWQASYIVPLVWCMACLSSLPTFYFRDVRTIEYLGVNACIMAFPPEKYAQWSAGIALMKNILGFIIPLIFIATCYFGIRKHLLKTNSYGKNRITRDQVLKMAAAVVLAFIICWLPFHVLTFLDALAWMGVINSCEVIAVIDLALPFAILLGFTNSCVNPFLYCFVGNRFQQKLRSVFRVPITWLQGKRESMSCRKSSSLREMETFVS
T23 sequence (P08173 whole entry): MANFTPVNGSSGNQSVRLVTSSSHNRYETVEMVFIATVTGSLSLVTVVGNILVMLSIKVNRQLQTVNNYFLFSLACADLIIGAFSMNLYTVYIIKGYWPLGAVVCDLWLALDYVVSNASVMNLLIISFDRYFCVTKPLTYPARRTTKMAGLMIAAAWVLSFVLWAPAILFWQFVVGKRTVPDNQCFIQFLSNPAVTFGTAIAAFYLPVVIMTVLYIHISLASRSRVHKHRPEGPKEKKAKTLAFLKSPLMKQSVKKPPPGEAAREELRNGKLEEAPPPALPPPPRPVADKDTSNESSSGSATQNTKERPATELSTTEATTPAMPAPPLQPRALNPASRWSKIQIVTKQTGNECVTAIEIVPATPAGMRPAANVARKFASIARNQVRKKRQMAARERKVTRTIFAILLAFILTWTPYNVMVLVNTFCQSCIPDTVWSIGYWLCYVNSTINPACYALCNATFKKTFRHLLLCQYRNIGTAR

Molecule: O=c1cc(-c2ccccc2)oc2c(O)c(O)ccc12 [7,8-DHF, 7,8-dihydroxyflavone]
- inhibition at 10 µM [1]: 21%
- inhibition at 10 µM [2]: 12%
- inhibition at 10 µM [3]: -20%
- inhibition at 10 µM [4]: 5%
- inhibition at 10 µM [5]: 5%
- % of specific inhibition [6]: 2%
- % Inhibition of Control Specific Binding ([7]; 10 μM): 56.5%
- inhibition at 10 µM [7, 38]: 56%
- inhibition at 10 µM [8]: 17%
- inhibition at 10 µM [9]: 5%
- inhibition at 10 µM [10]: 6%
- inhibition at 10 µM [11]: 15%
- inhibition at 10 µM [12]: -23%
- inhibition at 10 µM [13]: -1%
- % Inhibition of Control Specific Binding ([14]; 10 μM): 68.2%
- inhibition at 10 µM [14, 38]: 68%
- % of specific inhibition [15]: -15%
- inhibition at 10 µM [16]: 49%
- inhibition at 10 µM [17]: 11%
- inhibition at 10 µM [18]: 4%
- inhibition at 10 µM [19]: 0%
- inhibition at 10 µM [20]: 6%
- inhibition at 10 µM [21]: 24%
- % of specific inhibition [22]: -3%
- inhibition at 10 µM [23]: -11%
- inhibition at 10 µM [24]: -6%
- inhibition at 10 µM [25]: 11%
- inhibition at 10 µM [26]: 4%
- % Inhibition of Control Specific Binding [27]: 86%
- inhibition at 10 µM [28]: -5%
- % of specific inhibition [29]: 11%
- % of specific inhibition [30]: -20%
- inhibition at 10 µM [31]: 3%
- % of specific inhibition ([32]; first unspecified Ca2+ channel entry): -4%
- % of specific inhibition ([32]; second unspecified Ca2+ channel entry): -6%
- inhibition at 10 µM [33]: -2%
- inhibition at 10 µM [34]: -3%
- inhibition at 10 µM [35]: -3%
- inhibition at 10 µM [36]: -25%

- TrkB Dimerization [37]: YES
B1: BDNF: Brain-derived neurotrophic factor, endogenous TrkB receptor agonist (protein, UniProt P23560 19-247, looked up)
Neurotrophic factor BDNF …: APMKEANIRGQGGLAYPGVRTHGTLESVNGPKAGSRGLTSLADTFEHVIEELLDEDQKVRPNEENNKDADLYTSRVMLSSQVPLEPPLLFLLEEYKNYLDAANMSMRVRRHSDPARRGELSVCDSISEWVTAADKKTAVDMSGGTVTVLEKVPVSKGQLKQYFYETKCNPMGYTKEGCRGIDKRHWNSQCRTTQSYVRALTMDSKKRIGWRFIRIDTSCVCTLTIKRGR
